The text below walks through data of patent US20250064846A1, “TREATMENT AND PREVENTION OF TRIGEMINAL NEURALGIA” (THE JOHNS HOPKINS UNIVERSITY, priority 2022, published 2025).

“Also recorded” adds a separate entry of the source.

Assay [1] concerns constrictive mouse model of trigeminal neuralgia. The assay can be described thus: Mechanical allodynia (Von Frey filament) after constriction of the maxillary nerve. It counts as in vivo. The following applies: for mechanical allodynia (sensitivity to crude touch): WT mice, i.p. daily for two days before surgery and daily after behavior testing, sulforaphane, exemestane, letrozole 10 mg/kg, JQ-1 40 mg/kg, ascorbate 100 mg/kg, vs vehicle; for persistence of effects after treatment: daily i.p. dosing just after behavior testing. How it is done: Constriction of the Maxillary Nerve Constriction of the maxillary division of trigeminal nerve was performed as previously described (See Benedetti, A., et al., Biochimica Et Biophysica Acta Bba—Lipids Lipid Metabolism 620, 281-296 (1980) and Vos, B., et al J Neurosci 14, 2708-2723 (1994)). The procedure was performed under direct visualization and control with a surgical microscope. Mice were first anesthetized with ketamine (100 mg/kg, i.p.) and xylazine (12.5 mg/kg, i.p.) and monitored by pinching the skin between the toes with forceps and monitoring for withdrawal. Mice were restrained with adhesive tape to a sterilized polystyrene board. Upon sufficient anesthesia, the scalp was shaved and an anterior to posterior skin incision was made at the midline to expose the nasal and maxillary bones. The maxillary nerve was exposed and carefully dissected free from the surrounding connective tissue. The distal end of the maxillary nerve was then loosely constricted using 8-0 silk sutures as a ligature. The sutures were tied using a slip knot followed by a normal knot, after which any remaining suture was cut free. The incision was then closed with a 4-0 silk suture. In the sham procedure, the left maxillary nerve was exposed but not constricted. Mice were monitored and rehydrated until fully recovered from anesthesia.
Pharmacologic Treatments Mice were dosed with either sulforaphane (10 mg/kg, i.p.), exemestane (10 mg/kg, i.p.), letrozole (10 mg/kg, i.p.), (+)-JQ-1 (40 mg/kg, i.p.), (−)-JQ-1 (40 mg/kg, i.p.), or ascorbate (100 mg/kg, i.p.) as indicated below. Mice were first dosed daily for two days before surgery and again daily just after behavior testing. For local exemestane treatment, exemestane (5 μL, 25 μg total) was applied directly to the maxillary nerve. Mice received a single dose during surgery. Mice were dosed with AM-0902 (30 mg/kg, p.o.). Mice were treated with AM-0902 were dosed 30 min prior to behavior testing. Mice were dosed with tamoxifen (75 mg/kg, i.p.). Mice were dosed once every 24 hrs over 5 consecutive days. Behavioral and molecular tests were only performed 7 or more days after the final tamoxifen injection.
Mechanical Allodynia Mechanical allodynia was assessed in C57BL/6J, TRPA1^+/+, TRPA1^−/−, Keap1(f/f), and Keap1(f/f/CMV-CreER mice using a Von Frey filament as previously outlined (See Benedetti, A., et al., Biochimica Et Biophysica Acta Bba—Lipids Lipid Metabolism 620, 281-296 (1980) and Vos, B., et al J Neurosci 14, 2708-2723 (1994)). Animals were placed individually in transparent plastic boxes and allowed to acclimate to the environment for at least 30 min before testing. After habituation, a 0.04 g force Von Frey filament was used to stimulate the territory innervated by the maxillary nerve, including the vibrissal skin pad. Each mouse's response to the filament was scored from 0-4 on the scale below. Each mouse was scored ten times per day. Changes in mechanical allodynia were considered relative to sham- or vehicle-treated animal controls. Behavior was assessed concomitantly or in a blocked manner with consideration for both genotype and treatment. • 0—no response • 1—non-defensive response to the stimulus (e.g., mouse non-defensively explores filament) • 2—withdrawal response (e.g., mouse turns head away from filament) • 3—escape/attack response (e.g., mouse moves body away from filament and assumes crouching position against the box wall; actively attacks filament by biting and/or grabbing) • 4—asymmetric face grooming (e.g., mouse wipes stimulated facial area in uninterrupted series of at least three face-wash strokes)

In a further assay the test system is maxillary nerves. The assay can be described thus: Myelin basic protein (MBP) immunostaining of maxillary nerves. It counts as in vivo, mouse. The following applies: ten days post-surgery; sulforaphane 10, exemestane 10, JQ-1 40 mg/kg, i.p. daily; vs vehicle-treated ligated nerves. The protocol:
Histology Maxillary nerves from mice were dissected and fixed in cold 4% formaldehyde (v/v) overnight at 4° C. Tissues were then cryoprotected through a series of 10%, 20%, and 30% sucrose (w/v) gradients for 24 hrs each at 4° C. Tissues were then embedded in Optimal Cutting Temperature compound (OCT) and sectioned in 20 μm intervals with a cryostat, after which the sections were dried onto slides and kept at […]. Sections were then processed for immunohistochemistry.
Immunohistochemistry was performed as previously described (Vasavda C et al., Cell Chem Biol 2019; 26(10):1450-1460.e7, incorporated herein by reference in its entirety). Briefly, sections were post-fixed with 4% parafomaldehyde for 15 min at 25° C. and then permeabilized with 100% methanol for 7 min at −20° C. The slides were then pre-incubated in blocking solution (10% normal goat serum (ThermoFisher Scientific)) for 30 min at 25° C. Sections were incubated overnight at 4° C. with the appropriate primary antibodies in blocking solution. Sections were washed and incubated with the appropriate secondary antibodies diluted 1:250 in blocking solution for 1 h at 25° C. Tissues were then mounted with ProLong Gold Antifade Mountant with DAPI (Invitrogen).
MBP immunostaining: Mice were first dosed daily with either sulforaphane (10 mg/kg, i.p.), exemestane (10 mg/kg, i.p.), JQ-1 (40 mg/kg, i.p.), or the appropriate vehicle for two days before surgical ligation of the maxillary nerve, after which they were dosed every 24 h for 10 days thereafter. MBP immunostaining was performed ten days post-surgery. MBP stains were interpreted by a pathologist to morphologically assess the degree of damage from nerve injury and response to drug treatment. Antibodies: primary antibodies: chicken anti-MBP (1:500); secondary antibodies: goat anti-chicken (Alexa 488, A32931 Invitrogen).

The next assay deals with NRF2 target genes. The assay can be described thus: Quantitative PCR of NRF2 target genes from maxillary nerves. Type of assay: in vivo, mouse. The following applies: qPCR normalized to Actb, 11 days of treatment, i.p.; for Hmox1 expression in maxillary nerves / Prdx1 expression in maxillary nerves / Txnrd1 expression in maxillary nerves: exemestane 10 or JQ-1 40 mg/kg. How it is done:
FIGS. 17A-17J show differential upregulation of NRF2 target genes after treatment with exemestane and JQ-1. Quantitative PCR analysis of Ngo1, Hmox1 Txnrd1, Prdx1, and Gclc, as indicated, normalized to Actb from maxillary nerves of mice after 11 days of treatment with either exemestane (FIGS. 17A-17E; 10 mg/kg, i.p.) or JQ-1 (FIGS. 17F-17J; 40 mg/kg, i.p.) compared to vehicle is shown. Points represent individual mice. Median and range depicted. *=P<0.05. **=P<0.01, and ns=P>0.05 by two-tailed unpaired Student's t-test.
DNA/RNA Isolation. PCR, and Quantitative-PCR (q-PCR) Total cellular or tissue DNA/RNA was extracted using the DNeasy Blood & Tissue Kit (Qiagen) for DNA or RNeasy Plus Universal Kit (Qiagen) for RNA per the manufacturer's instructions. PCR was performed with the Platinum Taq DNA Polymerase High Fidelity Kit (Invitrogen), whereas q-PCR was performed with the TaqMan RNA-to-Ct I-Step Kit (Applied Biosystems).

In a further assay the test system is NRF2. In words: NRF2/MAP2 immunostaining in trigeminal ganglia. Type of assay: in vivo, mouse. The following applies: immunohistochemistry 24 h after the fourth dose; 10 mg/kg, i.p.

Turning to `Cc1sc2c(c1C)C(c1ccc(Cl)cc1)=N[C@@H](CC(=O)OC(C)(C)C)c1nnc(C)n1-2` [JQ-1, (S)-tert-butyl 2-(4-(4-chlorophenyl)-2,3,9-trimethyl-6H-thieno[3,2-f][1,2,4]triazolo[4,3-a][1,4]diazepin-6-yl)acetate], in assay [1], the “mechanical allodynia (sensitivity to crude touch)” value was “much less sensitive” and the “persistence of effects after treatment” value was determined as 24 h. In assay [1] (listed as (+)-JQ-1), the “mechanical allodynia (sensitivity to crude touch)” value is “lowered”. The “nerve architecture by myelin basic protein staining” value (“nerve architecture” below) with maxillary nerves was “better preserved nerve architecture with increased density of myelinated axons of varying sizes”. In the assay with NRF2 target genes, the “Hmox1 expression in maxillary nerves” value is “most potently upregulated”, the “Prdx1 expression in maxillary nerves” value was “upregulated” and the “Txnrd1 expression in maxillary nerves” value is “did not increase”.

For the molecule `C=C1C[C@@H]2[C@H](CC[C@]3(C)C(=O)CC[C@@H]23)[C@@]2(C)C=CC(=O)C=C12` [exemestane, 6-methylenandrosta-1,4-diene-3,17-dione], in assay [1], the “mechanical allodynia (sensitivity to crude touch)” value is given as “much less sensitive; also recorded: lowered” and the “persistence of effects after treatment” value amounted to 24 h. For the same molecule, the “duration of analgesic effect” value in assay [1] (mouse, in vivo) is listed as “persists over the course of days to weeks”. Also, the mechanical allodynia entry in assay [1] (single local treatment, exemestane 25 μg/site applied directly to the maxillary nerve during surgery) is “lessened”. In the assay on NRF2, the “NRF2 expression in neurons of the trigeminal ganglion” value is on record as “robustly increased NRF2 expression”. In addition, the “nerve architecture” value with maxillary nerves is recorded as “better preserved nerve architecture with increased density of myelinated axons of varying sizes”. Further, in the assay with NRF2 target genes (exemestane 10 mg/kg), the “Nqo1 expression in maxillary nerves” value is given as “upregulated”. In the assay with NRF2 target genes, the “Hmox1 expression in maxillary nerves” value was “upregulated”, the “Prdx1 expression in maxillary nerves” value is on record as “upregulated” and the “Txnrd1 expression in maxillary nerves” value is given as “upregulated”.

Consider `C[S+]([O-])CCCCN=C=S` (stereo not drawn) [sulforaphane, 1-isothiocyanato-4-(methanesulfinyl)butane], for which, in assay [1], the “mechanical allodynia (sensitivity to crude touch)” value is recorded as “less sensitive” and the “persistence of effects after treatment” value stood at 24 h. Moreover, the “NRF2 expression in neurons of the trigeminal ganglion” value in the assay with NRF2 is “robustly increased NRF2 expression”. Besides, the “nerve architecture” value in the assay with maxillary nerves is reported as “more normal architecture with myelinated axons of varying sizes”.
